Changes are numbered by the printed parent chain. Read-outs that look alike come from different tables or passages of the source.
How the values were obtained:
RET(KD: 658-1114 G810R) = biological target: T1, RET(KD: 658-1114 G810R) (Homo sapiens, UniProt P07949, G810R); experiment: HiBiT-Degradation, RET G810R degradation assay (Nano-Glo HiBiT Lytic), 293T.165 cells; type: cell-based; conditions: for Emax / DC50: 6.0 hours; for Emax: % remaining protein, read-out: 293T.165 RET(KD: 658-1114 G810R) 6.0 hours (Emax); for DC50: read-out: 293T.165 RET(KD: 658-1114 G810R) 6.0 hours (DC50)
T1 construct: 658-1114; expressed in transfected cells; host or cells: 293T.165 (293T cells, generated in-house)
T1 sequence (P07949 658-1114 G810R): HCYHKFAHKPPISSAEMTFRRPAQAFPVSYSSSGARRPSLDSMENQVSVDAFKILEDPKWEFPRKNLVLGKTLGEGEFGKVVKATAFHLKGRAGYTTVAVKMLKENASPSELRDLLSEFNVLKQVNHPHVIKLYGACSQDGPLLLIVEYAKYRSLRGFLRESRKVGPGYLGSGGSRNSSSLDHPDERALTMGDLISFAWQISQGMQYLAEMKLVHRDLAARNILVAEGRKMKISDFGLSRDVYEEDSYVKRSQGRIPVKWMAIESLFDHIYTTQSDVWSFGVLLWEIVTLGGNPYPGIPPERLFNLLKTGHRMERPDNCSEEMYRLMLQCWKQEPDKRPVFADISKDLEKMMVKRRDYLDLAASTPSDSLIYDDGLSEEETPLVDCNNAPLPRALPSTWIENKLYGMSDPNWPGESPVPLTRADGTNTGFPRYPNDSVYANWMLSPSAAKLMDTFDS
Procedure, shortened: (§1)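 HEK293T lines stably expressing HiBiT-tagged RET kinase domain (WT: 293T.144; G810R: 293T.165) were treated with degraders for 6 h in duplicate, 11-point half-log series from 10 μM top dose. Lysis with Nano-Glo HiBiT Lytic reagent, luminescence read; DC50 and Emax (% remaining protein) derived from dose-response curves.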

RET (658-1114) = biological target: T2, RET (658-1114) (Homo sapiens, UniProt P07949); experiment: HiBiT-Degradation, RET wild-type degradation assay (Nano-Glo HiBiT Lytic), 293T.144 cells; type: cell-based; conditions: for Emax / DC50: 6.0 hours; for Emax: read-out: 293T.144 RET (658-1114) 6.0 hours (Emax); for DC50: read-out: 293T.144 RET (658-1114) 6.0 hours (DC50)
T2 construct: 658-1114; expressed in transfected cells; host or cells: 293T.144 (293T cells, generated in-house)
T2 sequence (P07949 658-1114): T1 sequence (P07949 658-1114 G810R) with R153G
Procedure, shortened: as §1

[1] = half-maximal degradation concentration

| 293T.165 RET(KD: 658-1114 G810R) 6.0 hours (IP) [nM] (RET(KD: 658-1114 G810R)) | Emax (RET(KD: 658-1114 G810R)) [%] | DC50 (RET(KD: 658-1114 G810R); [1]) [nM] | 293T.144 RET (658-1114) 6.0 hours (IP) [nM] (RET (658-1114)) | Emax (RET (658-1114); % remaining protein) [%] | DC50 (RET (658-1114); [1]) [nM] | 293T.165 RET(KD: 658-1114 G810R) 6.0 hours (Emax) (RET(KD: 658-1114 G810R); HiBiT-Degradation) | 293T.165 RET(KD: 658-1114 G810R) 6.0 hours (IP) [nM] (RET(KD: 658-1114 G810R); HiBiT-Degradation) | DC50 (RET(KD: 658-1114 G810R); HiBiT-Degradation) [nM] | 293T.144 RET (658-1114) 6.0 hours (IP) [nM] (RET (658-1114); HiBiT-Degradation) | DC50 (RET (658-1114); HiBiT-Degradation) [nM] | Emax (RET (658-1114); HiBiT-Degradation) [%] | Structure (SMILES) |
| --- | --- | --- | --- | --- | --- | --- | --- | --- | --- | --- | --- | --- |
| ++++ (<50 nM = ++++) | < 30 | < 50 | ++++ (<50 nM = ++++) | < 30 | < 50 | – | – | – | – | – | – | N#Cc1cnn2cc(-c3cnn([C@H]4CC[C@H](N5CCC(c6ccc(N[C@@H]7CCC(=O)NC7=O)cc6F)CC5)CC4)c3)nc(-c3ccc(N4CCC5(CC4)OCc4cccnc45)nc3)c12 (relative stereo) [Compound 149, 6-[1-[4-[4-[2-fluoro-4-[[rac-(3R)-2,6-dioxo-3-piperidyl]amino]phenyl]-1-piperidyl]cyclohexyl]pyrazol-4-yl]-4-(6-spiro[5H-furo[3,4-b]pyridine-7,4′-piperidine]-1′-yl-3-pyridyl)pyrazolo[1,5-a]pyrazine-3-carbonitrile] |
| +++ (<100 nM = +++) | < 30 | < 50 | ++++ (<50 nM = ++++) | < 30 | < 50 | – | – | – | – | – | – | CCC1(C(=O)NC(C)C)CCN(c2ccc(-c3cc(-c4cnn(C5CC6(C5)CN(C5CCN(c7ccc(NC8CCC(=O)NC8=O)cc7F)CC5)C6)c4)cn4ncc(C#N)c34)cn2)CC1 (centres unmarked) [Compound 199, 1-(5-(3-cyano-6-(1-(2-(1-(4-((2,6-dioxopiperidin-3-yl)amino)-2-fluorophenyl)piperidin-4-yl)-2-azaspiro[3.3]heptan-6-yl)-1H-pyrazol-4-yl)pyrazolo[1,5-a]pyridin-4-yl)pyridin-2-yl)-4-ethyl-N-isopropylpiperidine-4-carboxamide] |
| ++++ (<50 nM = ++++) | < 30 | < 50 | ++++ (<50 nM = ++++) | < 30 | < 50 | – | – | – | – | – | – | CO[C@@H](C(=O)N1CCN(c2ccc(-c3nc(-c4cnn([C@H]5CC[C@@H](N6CCN(c7c(F)cc(NC8CCC(=O)NC8=O)cc7F)CC6)CC5)c4)cn4ncc(C#N)c34)cn2)CC1)c1ccccc1 (single isomer, unassigned) [Compound 201] |
| – | < 30 | < 100 | – | – | – | ++++ (< 30% = ++++) | ++++ (< 50 nM = ++++) | < 100 | ++++ (< 50 nM = ++++) | < 50 | < 30 | CC(C)NC(=O)C1(C)CCN(c2ccc(-c3cc(-c4ccc(N5CCN(C(=O)CN6CCC(c7ccc(NC8CCC(=O)NC8=O)cc7F)CC6)CC5)cc4)cn4ncc(C#N)c34)cn2)CC1 (centres unmarked) [Compound 45, 1-[5-[3-cyano-6-[4-[4-[2-[4-[4-[(2,6-dioxo-3-piperidyl)amino]-2-fluoro-phenyl]-1-piperidyl]acetyl]piperazin-1-yl]phenyl]pyrazolo[1,5-a]pyridin-4-yl]-2-pyridyl]-N-isopropyl-4-methyl-piperidine-4-carboxamide] |
| – | < 30 | < 50 | – | – | – | ++++ (< 30% = ++++) | ++++ (< 50 nM = ++++) | < 50 | ++++ (< 50 nM = ++++) | < 50 | < 30 | CCC1(C(=O)NC(C)C)CCN(c2ccc(-c3cc(-c4cnn(C5CCN(C(=O)CC6(O)CCN(c7ccc(NC8CCC(=O)NC8=O)cc7F)CC6)CC5)c4)cn4ncc(C#N)c34)cn2)CC1 (centres unmarked) [Compound 4, 1-[5-[3-cyano-6-[1-[1-[2-[1-[4-[(2,6-dioxo-3-piperidyl)amino]-2-fluoro-phenyl]-4-hydroxy-4-piperidyl]acetyl]-4-piperidyl]pyrazol-4-yl]pyrazolo[1,5-a]pyridin-4-yl]-2-pyridyl]-4-ethyl-N-isopropyl-piperidine-4-carboxamide] |
| – | < 50 | < 100 | – | – | – | +++ (<50% = +++) | ++++ (< 50 nM = ++++) | < 100 | ++++ (< 50 nM = ++++) | < 50 | < 30 | CCC1(C(=O)NC(C)C)CCN(c2ncc(-c3cc(-c4cnn(C5CCN(C(=O)CN6CCC(c7ccc(NC8CCC(=O)NC8=O)cc7F)CC6)CC5)c4)cn4ncc(C#N)c34)cn2)CC1 (centres unmarked) [Compound 59, 1-[5-[3-cyano-6-[1-[1-[2-[4-[4-[(2,6-dioxo-3-piperidyl)amino]-2-fluoro-phenyl]-1-piperidyl]acetyl]-4-piperidyl]pyrazol-4-yl]pyrazolo[1,5-a]pyridin-4-yl]pyrimidin-2-yl]-4-ethyl-N-isopropyl-piperidine-4-carboxamide] |
| – | < 30 | < 50 | – | – | – | ++++ (< 30% = ++++) | ++++ (< 50 nM = ++++) | < 50 | ++++ (< 50 nM = ++++) | < 50 | < 30 | CCC1(C(=O)NC(C)C)CCN(c2ccc(-c3nc(-c4cnn(C5CCN(C(=O)CC6(O)CCN(c7ccc(NC8CCC(=O)NC8=O)cc7Cl)CC6)CC5)c4)cn4ncc(C#N)c34)cn2)CC1 (centres unmarked) [Compound 14, 1-(5-(6-(1-(1-(2-(1-(2-Chloro-4-((2,6-dioxopiperidin-3-yl)amino)phenyl)-4-hydroxypiperidin-4-yl)acetyl)piperidin-4-yl)-1H-pyrazol-4-yl)-3-cyanopyrazolo[1,5-a]pyrazin-4-yl)pyridin-2-yl)-4-ethyl-N-isopropylpiperidine-4-carboxamide] |
| ++++ (<50 nM = ++++) | < 50 | < 100 | ++++ (<50 nM = ++++) | < 30 | < 50 | – | – | – | – | – | – | N#Cc1cnn2cc(-c3cnn(C4CCN(C(=O)CC5(O)CCN(c6ccc(NC7CCC(=O)NC7=O)cc6F)CC5)CC4)c3)nc(-c3ccc(N4CCN(C(=O)c5cccnc5)CC4)nc3)c12 (centres unmarked) [Compound 106, 6-[1-[1-[2-[1-[4-[(2,6-dioxo-3-piperidyl)amino]-2-fluoro-phenyl]-4-hydroxy-4-piperidyl]acetyl]-4-piperidyl]pyrazol-4-yl]-4-[6-[4-(pyridine-3-carbonyl)piperazin-1-yl]-3-pyridyl]pyrazolo[1,5-a]pyrazine-3-carbonitrile] |

| Structure (SMILES) | 293T.165 RET(KD: 658-1114 G810R) 6.0 hours (IP) [nM] (RET(KD: 658-1114 G810R)) | Emax (RET(KD: 658-1114 G810R)) [%] | DC50 (RET(KD: 658-1114 G810R); [1]) [nM] | 293T.144 RET (658-1114) 6.0 hours (IP) [nM] (RET (658-1114)) | Emax (RET (658-1114); % remaining protein) [%] | DC50 (RET (658-1114); [1]) [nM] | 293T.165 RET(KD: 658-1114 G810R) 6.0 hours (Emax) (RET(KD: 658-1114 G810R); HiBiT-Degradation) | 293T.165 RET(KD: 658-1114 G810R) 6.0 hours (IP) [nM] (RET(KD: 658-1114 G810R); HiBiT-Degradation) | DC50 (RET(KD: 658-1114 G810R); HiBiT-Degradation) [nM] | 293T.144 RET (658-1114) 6.0 hours (IP) [nM] (RET (658-1114); HiBiT-Degradation) | DC50 (RET (658-1114); HiBiT-Degradation) [nM] | Emax (RET (658-1114); HiBiT-Degradation) [%] |
| --- | --- | --- | --- | --- | --- | --- | --- | --- | --- | --- | --- | --- |
| N#Cc1cnn2cc(-c3cnn([C@H]4CC[C@H](N5CCN(c6ccc(N[C@@H]7CCC(=O)NC7=O)cc6F)CC5)CC4)c3)nc(-c3ccc(N4CC5COCC(C4)N5Cc4ccccn4)nc3)c12 (single isomer, unassigned) [Compound 156] | ++++ (<50 nM = ++++) | < 30 | < 50 | ++++ (<50 nM = ++++) | < 30 | < 50 | – | – | – | – | – | – |
| N#Cc1cnn2cc(-c3ccc(N4CCN(C(=O)CC5(O)CCN(c6ccc(NC7CCC(=O)NC7=O)cc6F)CC5)CC4)cc3)nc(-c3ccc(N4CC5CC(C4)N5Cc4ccccc4)nc3)c12 (centres unmarked) [Compound 177, 4-(6-(6-benzyl-3,6-diazabicyclo[3.1.1]heptan-3-yl)pyridin-3-yl)-6-(4-(4-(2-(1-(4-((2,6-dioxopiperidin-3-yl)amino)-2-fluorophenyl)-4-hydroxypiperidin-4-yl)acetyl)piperazin-1-yl)phenyl)pyrazolo[1,5-a]pyrazine-3-carbonitrile] | ++++ (<50 nM = ++++) | < 30 | < 100 | ++++ (<50 nM = ++++) | < 30 | < 50 | – | – | – | – | – | – |

— patent publication US12661410B2, “Compounds for targeted degradation of RET” (C4 Therapeutics, Inc., priority 2020, dated 2026)
